{
  "source": "patent US8784804B2",
  "about": "“Nutraceutical composition that comprises extract of andean shilajit, for preventing and/or treating neurodegenerative diseases and/or the cognitive deterioration associated with cerebral aging” (Centro Internacional de Biomedicina (ICC), priority 2009, dated 2014)",
  "tested_on": "neuroblastoma cells (N-115 cell line)",
  "assay": "Shilajit's toxicity in nerve cell culture (MTT assay, calcein-AM)",
  "type": "cell-based",
  "conditions": "10 mM H2O2, positive control of neuronal death",
  "procedure": "The toxicity of the composition's main component was determined, whose toxicity in nerve cells was unknown up to now. This study consisted in the application of concentrations ranging from 10 to 50 mg/mL to a culture of neuroblastoma cells (N-115 cell line) (MTT assay) and subsequent observation of neuronal death through fluorescent microscopy using the calcein-AM method that determines the morphologic integrity.",
  "data": [
    {"molecule": "OO", "note": "[H2O2]", "values": [
      {"measurement": "% neuronal death", "result": 100.0, "unit": "%"},
      {"measurement": "A550", "result": 0.050}
    ]}
  ]
}
